Values after ≈ are worked out from the molar mass of the structure shown. Active and inactive are the calls of the source. The calls are words filed in the database; no cut-off is given here.
Experiments:
Cutibacterium acnes [1] = test: Antibacterial activity against Propionibacterium acnes ATCC 11827 after 2 days by broth dilution method; assay type: functional; conditions: ATCC 11827, 48 h
Klebsiella aerogenes [2] = test: Antibacterial activity against Enterobacter aerogenes ATCC 13048 after 2 days by broth dilution method; assay type: functional; conditions: ATCC 13048, 48 h
Cyberlindnera jadinii [3] = test: Antifungal activity against Candida utilis ATCC 9226 after 2 days by broth dilution method; assay type: functional; conditions: Williopsis jadinii, ATCC 9226, 48 h
Streptococcus mutans [4] = test: Antibacterial activity against Streptococcus mutans ATCC […] after 2 days by broth dilution method; assay type: functional; conditions: 48 h
[5] = tested on: Trichophyton mentagrophytes; test: Antifungal activity against Trichophyton mentagrophytes ATCC 18748 after 5 days by broth dilution method; assay type: functional; conditions: ATCC 18748, 120 h
Bacillus subtilis [6] = test: Antibacterial activity against Bacillus subtilis ATCC 9372 after 2 days by broth dilution method; assay type: functional; conditions: ATCC 9372, 48 h
[7] = tested on: Corynebacterium ammoniagenes; test: Antibacterial activity against Brevibacterium ammoniagenes ATCC 6872 after 2 days by broth dilution method; assay type: functional; conditions: ATCC 6872, 48 h
Proteus vulgaris [8] = test: Antibacterial activity against Proteus vulgaris ATCC 13315 after 2 days by broth dilution method; assay type: functional; conditions: ATCC 13315, 48 h
Penicillium chrysogenum [9] = test: Antifungal activity against Penicillium chrysogenum ATCC 10106 after 5 days by broth dilution method; assay type: functional; conditions: ATCC 10106, 120 h
Pseudomonas aeruginosa [10] = test: Antibacterial activity against Pseudomonas aeruginosa ATCC 10145 after 2 days by broth dilution method; assay type: functional; conditions: ATCC 10145, 48 h
Staphylococcus aureus [11] = test: Antibacterial activity against Staphylococcus aureus ATCC 12598 after 2 days by broth dilution method; assay type: functional; conditions: ATCC 12598, 48 h
Malassezia [12] = test: Antifungal activity against Pityrosporum ovale ATCC 14521 after 3 days by broth dilution method; assay type: functional; conditions: ATCC 14521, 72 h
Escherichia coli [13] = test: Antibacterial activity against Escherichia coli ATCC 9637 after 2 days by broth dilution method; assay type: functional; conditions: ATCC 9637, 48 h
Saccharomyces cerevisiae [14] = test: Antifungal activity against Saccharomyces cerevisiae ATCC 7754 after 2 days by broth dilution method; assay type: functional; conditions: ATCC 7754, 48 h
Escherichia coli [15] = test: Antibacterial activity against Escherichia coli ATCC 9637 up to 800 ug/ml after 2 days by broth dilution method; assay type: functional, organism-based
Cutibacterium acnes [16] = test: Antibacterial activity against Propionibacterium acnes ATCC 11827 up to 800 ug/ml after 2 days by broth dilution method; assay type: functional, organism-based
Bacillus subtilis [17] = test: Antibacterial activity against Bacillus subtilis ATCC 9372 up to 800 ug/ml after 2 days by broth dilution method; assay type: functional, organism-based
Streptococcus mutans [18] = test: Antibacterial activity against Streptococcus mutans ATCC […] up to 800 ug/ml after 2 days by broth dilution method; assay type: functional, organism-based
Malassezia [19] = test: Antifungal activity against Pityrosporum ovale ATCC 14521 up to 800 ug/ml after 3 days by broth dilution method; assay type: functional, organism-based
Pseudomonas aeruginosa [20] = test: Antibacterial activity against Pseudomonas aeruginosa ATCC 10145 up to 800 ug/ml after 2 days by broth dilution method; assay type: functional, organism-based
Klebsiella aerogenes [21] = test: Antibacterial activity against Enterobacter aerogenes ATCC 13048 up to 800 ug/ml after 2 days by broth dilution method; assay type: functional, organism-based
Saccharomyces cerevisiae [22] = test: Antifungal activity against Saccharomyces cerevisiae ATCC 7754 up to 800 ug/ml after 2 days by broth dilution method; assay type: functional, organism-based
[23] = tested on: Corynebacterium ammoniagenes; test: Antibacterial activity against Brevibacterium ammoniagenes ATCC 6872 up to 800 ug/ml after 2 days by broth dilution method; assay type: functional, organism-based
Penicillium chrysogenum [24] = test: Antifungal activity against Penicillium chrysogenum ATCC 10106 up to 800 ug/ml after 5 days by broth dilution method; assay type: functional, organism-based
Staphylococcus aureus [25] = test: Antibacterial activity against Staphylococcus aureus ATCC 12598 up to 800 ug/ml after 2 days by broth dilution method; assay type: functional, organism-based
Proteus vulgaris [26] = test: Antibacterial activity against Proteus vulgaris ATCC 13315 up to 800 ug/ml after 2 days by broth dilution method; assay type: functional, organism-based
[27] = tested on: Trichophyton mentagrophytes; test: Antifungal activity against Trichophyton mentagrophytes ATCC 18748 up to 800 ug/ml after 5 days by broth dilution method; assay type: functional, organism-based
Cyberlindnera jadinii [28] = test: Antifungal activity against Candida utilis ATCC 9226 up to 800 ug/ml after 2 days by broth dilution method; assay type: functional, organism-based
Proteus vulgaris [29] = test: Ratio of MBC to MIC for Proteus vulgaris ATCC 13315; assay type: functional
Escherichia coli [30] = test: Ratio of MBC to MIC for Escherichia coli ATCC 9637; assay type: functional
[31] = tested on: Corynebacterium ammoniagenes; test: Ratio of MBC to MIC for Brevibacterium ammoniagenes ATCC 6872; assay type: functional
Klebsiella aerogenes [32] = test: Ratio of MBC to MIC for Enterobacter aerogenes ATCC 13048; assay type: functional
Cutibacterium acnes [33] = test: Ratio of MBC to MIC for Propionibacterium acnes ATCC 11827; assay type: functional
Staphylococcus aureus [34] = test: Ratio of MBC to MIC for Staphylococcus aureus ATCC 12598; assay type: functional
Streptococcus mutans [35] = test: Ratio of MBC to MIC for Streptococcus mutans ATCC […]; assay type: functional
Pseudomonas aeruginosa [36] = test: Ratio of MBC to MIC for Pseudomonas aeruginosa ATCC 10145; assay type: functional

Row | SMILES | MIC (Cutibacterium acnes [1]) | MIC (Klebsiella aerogenes [2]) | MIC (Cyberlindnera jadinii [3]) | MIC (Streptococcus mutans [4]) | MIC [5] | MIC (Bacillus subtilis [6]) | MIC [7] | MIC (Proteus vulgaris [8]) | MIC (Penicillium chrysogenum [9]) | MIC (Pseudomonas aeruginosa [10]) | MIC (Staphylococcus aureus [11]) | MIC (Malassezia [12]) | MIC (Escherichia coli [13]) | MIC (Saccharomyces cerevisiae [14]) | other results
1 | CCCCCCCCCCCCCCCC(=O)O | – | – | – | – | – | – | – | – | – | – | – | – | – | – | Activity (Escherichia coli [15]): inactive; Activity (Cutibacterium acnes [16]): inactive; Activity (Bacillus subtilis [17]): inactive; Activity (Streptococcus mutans [18]): inactive; Activity (Malassezia [19]): inactive; Activity (Pseudomonas aeruginosa [20]): inactive; Activity (Klebsiella aerogenes [21]): inactive; Activity (Saccharomyces cerevisiae [22]): inactive; Activity [23]: inactive; Activity (Penicillium chrysogenum [24]): inactive; Activity (Staphylococcus aureus [25]): inactive; Activity (Proteus vulgaris [26]): inactive; Activity [27]: inactive; Activity (Cyberlindnera jadinii [28]): inactive
2 | CCCCCCC/C=C/C=O [TRANS-2-DECENAL] | 12.5 µg/mL (≈ 81 µM) | > 800 µg/mL | 25 µg/mL (≈ 162 µM) | 100 µg/mL (≈ 648 µM) | 3.13 µg/mL (≈ 20.3 µM) | 25 µg/mL (≈ 162 µM) | 50 µg/mL (≈ 324 µM) | 25 µg/mL (≈ 162 µM) | 12.5 µg/mL (≈ 81 µM) | > 800 µg/mL | 25 µg/mL (≈ 162 µM) | 25 µg/mL (≈ 162 µM) | > 800 µg/mL | 25 µg/mL (≈ 162 µM) | –
3 | CCCCC/C=C/C=O | 50 µg/mL (≈ 396 µM) | 200 µg/mL (≈ 1580 µM) | 50 µg/mL (≈ 396 µM) | 400 µg/mL (≈ 3170 µM) | 25 µg/mL (≈ 198 µM) | 100 µg/mL (≈ 792 µM) | 200 µg/mL (≈ 1580 µM) | 50 µg/mL (≈ 396 µM) | 50 µg/mL (≈ 396 µM) | > 800 µg/mL | 200 µg/mL (≈ 1580 µM) | 25 µg/mL (≈ 198 µM) | 200 µg/mL (≈ 1580 µM) | 50 µg/mL (≈ 396 µM) | –
4 | CCCC/C=C/C=O | 100 µg/mL (≈ 891 µM) | 400 µg/mL (≈ 3570 µM) | 100 µg/mL (≈ 891 µM) | 400 µg/mL (≈ 3570 µM) | 25 µg/mL (≈ 223 µM) | 200 µg/mL (≈ 1780 µM) | 400 µg/mL (≈ 3570 µM) | 100 µg/mL (≈ 891 µM) | 50 µg/mL (≈ 446 µM) | 800 µg/mL (≈ 7130 µM) | 400 µg/mL (≈ 3570 µM) | 50 µg/mL (≈ 446 µM) | 400 µg/mL (≈ 3570 µM) | 100 µg/mL (≈ 891 µM) | Ratio (Proteus vulgaris [29]): <=2; Ratio (Escherichia coli [30]): <=2; Ratio [31]: <=2; Ratio (Klebsiella aerogenes [32]): <=2; Ratio (Cutibacterium acnes [33]): <=2; Ratio (Staphylococcus aureus [34]): <=2; Ratio (Streptococcus mutans [35]): <=2; Ratio (Pseudomonas aeruginosa [36]): <=2
5 | CCCCC/C=C/C=C/C=O | 12.5 µg/mL (≈ 82.1 µM) | > 800 µg/mL | 25 µg/mL (≈ 164 µM) | 100 µg/mL (≈ 657 µM) | 1.56 µg/mL (≈ 10.2 µM) | 50 µg/mL (≈ 328 µM) | 100 µg/mL (≈ 657 µM) | 25 µg/mL (≈ 164 µM) | 12.5 µg/mL (≈ 82.1 µM) | > 800 µg/mL | 50 µg/mL (≈ 328 µM) | 12.5 µg/mL (≈ 82.1 µM) | > 800 µg/mL | 25 µg/mL (≈ 164 µM) | –
6 | CCCCCC/C=C/C=O [2-NONENAL] | 25 µg/mL (≈ 178 µM) | 200 µg/mL (≈ 1430 µM) | 25 µg/mL (≈ 178 µM) | 100 µg/mL (≈ 713 µM) | 12.5 µg/mL (≈ 89.1 µM) | 50 µg/mL (≈ 357 µM) | 100 µg/mL (≈ 713 µM) | 25 µg/mL (≈ 178 µM) | 50 µg/mL (≈ 357 µM) | > 800 µg/mL | 50 µg/mL (≈ 357 µM) | 25 µg/mL (≈ 178 µM) | 200 µg/mL (≈ 1430 µM) | 25 µg/mL (≈ 178 µM) | –
7 | CCCCCCCC(=O)O [OCTANOIC ACID] | 200 µg/mL (≈ 1390 µM) | > 800 µg/mL | 200 µg/mL (≈ 1390 µM) | 1600 µg/mL (≈ 11100 µM) | 50 µg/mL (≈ 347 µM) | 200 µg/mL (≈ 1390 µM) | 400 µg/mL (≈ 2770 µM) | 200 µg/mL (≈ 1390 µM) | 100 µg/mL (≈ 693 µM) | > 800 µg/mL | 400 µg/mL (≈ 2770 µM) | 200 µg/mL (≈ 1390 µM) | > 800 µg/mL | 200 µg/mL (≈ 1390 µM) | –

Continued, in another order:

Row | MIC (Cutibacterium acnes [1]) | MIC (Klebsiella aerogenes [2]) | MIC (Cyberlindnera jadinii [3]) | MIC (Streptococcus mutans [4]) | MIC [5] | MIC (Bacillus subtilis [6]) | MIC [7] | MIC (Proteus vulgaris [8]) | MIC (Penicillium chrysogenum [9]) | MIC (Pseudomonas aeruginosa [10]) | MIC (Staphylococcus aureus [11]) | MIC (Malassezia [12]) | MIC (Escherichia coli [13]) | MIC (Saccharomyces cerevisiae [14]) | SMILES | other results
8 | 400 µg/mL (≈ 3440 µM) | > 800 µg/mL | 400 µg/mL (≈ 3440 µM) | > 800 µg/mL | 100 µg/mL (≈ 861 µM) | 200 µg/mL (≈ 1720 µM) | 400 µg/mL (≈ 3440 µM) | 400 µg/mL (≈ 3440 µM) | 400 µg/mL (≈ 3440 µM) | > 800 µg/mL | > 800 µg/mL | 400 µg/mL (≈ 3440 µM) | > 800 µg/mL | 400 µg/mL (≈ 3440 µM) | CCCCCC(=O)O [HEXANOATE] | –
9 | 800 µg/mL (≈ 9510 µM) | > 800 µg/mL | 800 µg/mL (≈ 9510 µM) | > 800 µg/mL | 200 µg/mL (≈ 2380 µM) | 800 µg/mL (≈ 9510 µM) | > 800 µg/mL | 800 µg/mL (≈ 9510 µM) | 50 µg/mL (≈ 594 µM) | > 800 µg/mL | > 800 µg/mL | 200 µg/mL (≈ 2380 µM) | > 800 µg/mL | 800 µg/mL (≈ 9510 µM) | CC(C)=CC=O [3-METHYL-(E)-2-BUTENAL] | –
10 | 800 µg/mL (≈ 7990 µM) | > 800 µg/mL | > 800 µg/mL | > 800 µg/mL | > 800 µg/mL | > 800 µg/mL | > 800 µg/mL | > 800 µg/mL | > 800 µg/mL | > 800 µg/mL | > 800 µg/mL | 800 µg/mL (≈ 7990 µM) | > 800 µg/mL | > 800 µg/mL | CCCCCC=O [HEXANAL] | –
11 | 6.25 µg/mL (≈ 37.1 µM) | > 800 µg/mL | 12.5 µg/mL (≈ 74.3 µM) | 50 µg/mL (≈ 297 µM) | 1.56 µg/mL (≈ 9.27 µM) | 25 µg/mL (≈ 149 µM) | 25 µg/mL (≈ 149 µM) | 12.5 µg/mL (≈ 74.3 µM) | 6.25 µg/mL (≈ 37.1 µM) | > 800 µg/mL | 12.5 µg/mL (≈ 74.3 µM) | 25 µg/mL (≈ 149 µM) | > 800 µg/mL | 25 µg/mL (≈ 149 µM) | CCCCCCCC/C=C/C=O | –

— ChEMBL document CHEMBL1150081, “Antimicrobial Agents from Tanacetum balsamita” (1995)
